According to patent US20200131132A1, “FARNESOID X RECEPTOR AGONISTS AND USES THEREOF” (Metacrine, Inc., priority 2017, published 2020):

Target: T1, hFXR (Homo sapiens, UniProt Q96RI1)
T1 construct: expressed in transfected cells; host or cells: CV-1 cells
T1 sequence (Q96RI1 1-486): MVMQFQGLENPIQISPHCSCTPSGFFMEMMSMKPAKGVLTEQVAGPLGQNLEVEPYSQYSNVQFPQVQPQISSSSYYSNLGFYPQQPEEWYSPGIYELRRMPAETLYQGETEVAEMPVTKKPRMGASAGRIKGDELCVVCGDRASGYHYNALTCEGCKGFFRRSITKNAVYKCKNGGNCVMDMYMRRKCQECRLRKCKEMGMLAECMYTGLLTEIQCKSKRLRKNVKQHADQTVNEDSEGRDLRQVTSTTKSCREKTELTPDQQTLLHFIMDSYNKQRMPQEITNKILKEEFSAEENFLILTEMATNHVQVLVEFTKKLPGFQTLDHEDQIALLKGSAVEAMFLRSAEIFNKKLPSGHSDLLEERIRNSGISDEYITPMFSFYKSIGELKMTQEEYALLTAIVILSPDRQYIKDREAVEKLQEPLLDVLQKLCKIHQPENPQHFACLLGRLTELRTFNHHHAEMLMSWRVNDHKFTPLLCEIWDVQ
T1 sequence (P19793 1-462 partner): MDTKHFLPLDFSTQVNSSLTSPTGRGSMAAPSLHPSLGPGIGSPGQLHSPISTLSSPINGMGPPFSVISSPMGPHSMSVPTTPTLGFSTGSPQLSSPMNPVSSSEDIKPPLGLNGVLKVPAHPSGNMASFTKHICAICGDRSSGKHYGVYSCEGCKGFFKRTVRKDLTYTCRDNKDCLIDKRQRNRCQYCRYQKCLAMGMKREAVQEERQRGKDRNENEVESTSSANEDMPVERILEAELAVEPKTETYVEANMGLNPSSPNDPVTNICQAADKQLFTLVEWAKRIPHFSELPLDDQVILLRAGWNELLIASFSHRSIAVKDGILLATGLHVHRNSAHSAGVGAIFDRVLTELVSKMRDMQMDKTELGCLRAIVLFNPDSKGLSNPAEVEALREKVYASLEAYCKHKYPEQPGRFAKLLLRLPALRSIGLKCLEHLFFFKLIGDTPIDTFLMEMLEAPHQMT
Experiment: In Vitro FXR Assay (TK)
Assay type: cell-based
Details: CV-1 cells transfected with hFXR, hRXR, TK-ECRE-luc and pCMX-YFP; compounds incubated 18 hrs; luminescence
Experimental: CV-1 cells were seeded at a density of 2,000,000 cells in a T175 flask with DMEM+10% charcoal double-stripped FBS and incubated at 37° C. in 5% CO2 for 18 h (O/N).
After 18 h of incubation, the medium in the T175 flask was changed with fresh DMEM+10% charcoal super-stripped serum. In a polypropylene tube, 2500 μL OptiMEM (Life Technologies, Cat #31985-062) was combined with expression plasmids for hFXR, hRXR, TK-ECRE-luc and pCMX-YFP. The tube was then briefly vortexed and incubated at room temperature for 5 minutes. Transfection reagent (X-tremeGENE HP from Roche, Cat #06 366 236 001) was added to the OptiMEM/plasmid mixture vortexed and incubated at room temperature for 20 minutes. Following incubation, the transfection reagent/DNA mixture complex was added to cells in the T175 flask and the cells were incubated at 37° C. in 5% CO2 for 18 h (O/N).
Compounds were serially diluted in DMSO and added to transfected CV-1 cells. The cells were then incubated for 18 hrs. The next day cells were lysed and examined for luminescence.

SMILES | EC50
COc1ccc(-c2ccc(CN(C(=O)CC(C)(C)C)c3nccc4cc(N5CCN(C)CC5)ccc34)cc2)cc1C [Compound 6.05, N-((4′-Methoxy-3′-methyl-[1,1′-biphenyl]-4-yl)methyl)-3,3-dimethyl-N-(6-(4-methylpiperazin-1-yl)isoquinolin-1-yl)butanamide] | 1000 to 10000 nM
COc1ccc(-c2ccc(CN(C(=O)CC(C)(C)C)c3nccc4cc(N5CCNCC5)ccc34)cc2)cc1C [Compound 6.09, N-((4′-Methoxy-3′-methyl-[1,1′-biphenyl]-4-yl)methyl)-3,3-dimethyl-N-(6-(piperazin-1-yl)isoquinolin-1-yl)butanamide] | 1000 to 10000 nM
COc1ccc(-c2ccc(CN(C(=O)CC(C)(C)C)c3nccc4cc(N5CCC(CO)C5)ccc34)cc2)cc1C (centres unmarked) [Compound 6.16, N-(6-(3-(Hydroxymethyl)pyrrolidin-1-yl)isoquinolin-1-yl)-N-((4′-methoxy-3′-methyl-[1,1′-biphenyl]-4-yl)methyl)-3,3-dimethylbutanamide] | ≤ 1000 nM
COc1ccc(-c2ccc(CN(C(=O)CC(C)(C)C)c3nccc4cc(N5CCCC(O)C5)ccc34)cc2)cc1C (centres unmarked) [Compound 6.17, N-(6-(3-Hydroxypiperidin-1-yl)isoquinolin-1-yl)-N-((4′-methoxy-3′-methyl-[1,1′-biphenyl]-4-yl)methyl)-3,3-dimethylbutanamide] | ≤ 1000 nM
COc1ccc(-c2ccc(CN(C(=O)CC(C)(C)C)c3nccc4cc(N5CCC(O)CC5)ccc34)cc2)cc1C [Compound 6.18, N-(6-(4-Hydroxypiperidin-1-yl)isoquinolin-1-yl)-N-((4′-methoxy-3′-methyl-[1,1′-biphenyl]-4-yl)methyl)-3,3-dimethylbutanamide] | ≤ 1000 nM
COc1ccc(-c2ccc(CN(C(=O)CC(C)(C)C)c3nccc4cc(N5CCC(OC)C5)ccc34)cc2)cc1C (centres unmarked) [Compound 6.19, N-((4′-Methoxy-3′-methyl-[1,1′-biphenyl]-4-yl)methyl)-N-(6-(3-methoxypyrrolidin-1-yl)isoquinolin-1-yl)-3,3-dimethylbutanamide] | ≤ 1000 nM
COC(=O)Nc1ccc2c(N(Cc3ccc(-c4ccc(OC)c(C)c4)cc3)C(=O)CC(C)(C)C)nccc2c1 [Compound 6.21, Methyl (l-(N-((4′-methoxy-3′-methyl-[1,1′-biphenyl]-4-yl)methyl)-3,3-dimethylbutanamido)isoquinolin-6-yl)carbamate] | ≤ 1000 nM
COc1ccc(-c2ccc(CN(C(=O)CC(C)(C)C)c3nccc4cc(O)ccc34)cc2)cc1C [Compound 7, N-(6-Hydroxyisoquinolin-1-yl)-N-((4′-methoxy-3′-methyl-[1,1′-biphenyl]-4-yl)methyl)-3,3-dimethylbutanamide] | ≤ 1000 nM
COc1ccc(-c2ccc(CN(C(=O)CC(C)(C)C)c3nccc4cc(OCCCO)ccc34)cc2)cc1C [Compound 8, N-(6-(3-Hydroxypropoxy)isoquinolin-1-yl)-N-((4′-methoxy-3′-methyl-[1,1′-biphenyl]-4-yl)methyl)-3,3-dimethylbutanamide] | ≤ 1000 nM
COc1ccc(-c2ccc(CN(C(=O)CC(C)(C)C)c3nccc4cc(OCCCCO)ccc34)cc2)cc1C [Compound 8.1, N-(6-(4-Hydroxybutoxy)isoquinolin-1-yl)-N-((4′-methoxy-3′-methyl-[1,1′-biphenyl]-4-yl)methyl)-3,3-dimethylbutanamide] | ≤ 1000 nM
CNC(=O)COc1ccc2c(N(Cc3ccc(-c4ccc(OC)c(C)c4)cc3)C(=O)CC(C)(C)C)nccc2c1 [Compound 8.01, N-((4′-Methoxy-3′-methyl-[1,1′-biphenyl]-4-yl)methyl)-3,3-dimethyl-N-(6-(2-(methylamino)-2-oxoethoxy)isoquinolin-1-yl)butanamide] | 1000 to 10000 nM
COc1ccc(-c2ccc(CN(C(=O)CC(C)(C)C)c3nccc4cc(OCC(=O)N(C)C)ccc34)cc2)cc1C [Compound 8.02, N-(6-(2-(Dimethylamino)-2-oxoethoxy)isoquinolin-1-yl)-N-((4′-methoxy-3′-methyl-[1,1′-biphenyl]-4-yl)methyl)-3,3-dimethylbutanamide] | ≤ 1000 nM
COc1ccc(-c2ccc(CN(C(=O)CC(C)(C)C)c3nccc4cc(OCC(N)=O)ccc34)cc2)cc1C [Compound 8.03, N-(6-(2-Amino-2-oxoethoxy)isoquinolin-1-yl)-N-((4′-methoxy-3′-methyl-[1,1′-biphenyl]-4-yl)methyl)-3,3-dimethylbutanamide] | ≤ 1000 nM
COc1ccc(-c2ccc(CN(C(=O)CC(C)(C)C)c3nccc4cc(OCCN(C)C)ccc34)cc2)cc1C [Compound 8.04, N-(6-(2-(Dimethylamino)ethoxy)isoquinolin-1-yl)-N-((4′-methoxy-3′-methyl-[1,1′-biphenyl]-4-yl)methyl)-3,3-dimethylbutanamide] | 1000 to 10000 nM

Second part, the compound after the results:

EC50 | SMILES
≤ 1000 nM | COc1ccc(-c2ccc(CN(C(=O)CC(C)(C)C)c3nccc4cc(N5CCC5)ccc34)cc2)cc1C [Compound 6.04, N-(6-(Azetidin-1-yl)isoquinolin-1-yl)-N-((4′-methoxy-3′-methyl-[1,1′-biphenyl]-4-yl)methyl)-3,3-dimethylbutanamide]
≤ 1000 nM | COc1ccc(-c2ccc(CN(C(=O)CC(C)(C)C)c3nccc4cc(N5CCOCC5)ccc34)cc2)cc1C [Compound 6.06, N-((4′-Methoxy-3′-methyl-[1,1′-biphenyl]-4-yl)methyl)-3,3-dimethyl-N-(6-morpholinoisoquinolin-1-yl)butanamide]
≤ 1000 nM | COc1ccc(-c2ccc(CN(C(=O)CC(C)(C)C)c3nccc4cc(N5CCCCC5)ccc34)cc2)cc1C [Compound 6.07, N-((4′-Methoxy-3′-methyl-[1,1′-biphenyl]-4-yl)methyl)-3,3-dimethyl-N-(6-(piperidin-1-yl)isoquinolin-1-yl)butanamide]
≤ 1000 nM | COc1ccc(-c2ccc(CN(C(=O)CC(C)(C)C)c3nccc4cc(N5CCCC5)ccc34)cc2)cc1C [Compound 6.08, N-((4′-Methoxy-3′-methyl-[1,1′-biphenyl]-4-yl)methyl)-3,3-dimethyl-N-(6-(pyrrolidin-1-yl)isoquinolin-1-yl)butanamide]
≤ 1000 nM | CNc1ccc2c(N(Cc3ccc(-c4ccc(OC)c(C)c4)cc3)C(=O)CC(C)(C)C)nccc2c1 [Compound 6.11, N-((4′-Methoxy-3′-methyl-[1,1′-biphenyl]-4-yl)methyl)-3,3-dimethyl-N-(6-(methylamino)isoquinolin-1-yl)butanamide]
≤ 1000 nM | COc1ccc(-c2ccc(CN(C(=O)CC(C)(C)C)c3nccc4cc(N5CCC(F)C5)ccc34)cc2)cc1C (centres unmarked) [Compound 6.12, N-(6-(3-Fluoropyrrolidin-1-yl)isoquinolin-1-yl)-N-((4′-methoxy-3′-methyl-[1,1′-biphenyl]-4-yl)methyl)-3,3-dimethylbutanamide]
≤ 1000 nM | COc1ccc(-c2ccc(CN(C(=O)CC(C)(C)C)c3nccc4cc(N5CCC(C#N)C5)ccc34)cc2)cc1C (centres unmarked) [Compound 6.13, N-(6-(3-Cyanopyrrolidin-1-yl)isoquinolin-1-yl)-N-((4′-methoxy-3′-methyl-[1,1′-biphenyl]-4-yl)methyl)-3,3-dimethylbutanamide]
≤ 1000 nM | COc1ccc(-c2ccc(CN(C(=O)CC(C)(C)C)c3nccc4cc(N5CCC(CCO)C5)ccc34)cc2)cc1C (centres unmarked) [Compound 6.14, N-(6-(3-(2-Hydroxyethyl)pyrrolidin-1-yl)isoquinolin-1-yl)-N-((4′-methoxy-3′-methyl-[1,1′-biphenyl]-4-yl)methyl)-3,3-dimethylbutanamide]
≤ 1000 nM | COc1ccc(-c2ccc(CN(C(=O)CC(C)(C)C)c3nccc4cc(N5CC(CO)C5)ccc34)cc2)cc1C [Compound 6.15, N-(6-(3-(Hydroxymethyl)azetidin-1-yl)isoquinolin-1-yl)-N-((4′-methoxy-3′-methyl-[1,1′-biphenyl]-4-yl)methyl)-3,3-dimethylbutanamide]
